From ChEMBL document CHEMBL3727357, “Compositions and methods for inhibiting g protein signaling” (2010)
The source made the active and inactive calls. The rule behind the calls is not given here.

How the values were obtained:
[1] = biological target: T1, Guanine nucleotide-binding protein G(I)/G(S)/G(T) subunit beta-1/gamma-2 (Homo sapiens, UniProt P62873+P59768); test: Inhibition of SIGKAFKILGYPDYD binding to biotinylated Gbeta1gamma2 (unknown origin) at 300 uM incubated for 1 hr by phage ELISA; type: protein-complex assay
T1 sequence (P59768 2-71 partner limits assumed): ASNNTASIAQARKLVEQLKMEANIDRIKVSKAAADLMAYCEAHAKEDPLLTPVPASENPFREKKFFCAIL
T1 sequence (P62873 2-340 limits assumed): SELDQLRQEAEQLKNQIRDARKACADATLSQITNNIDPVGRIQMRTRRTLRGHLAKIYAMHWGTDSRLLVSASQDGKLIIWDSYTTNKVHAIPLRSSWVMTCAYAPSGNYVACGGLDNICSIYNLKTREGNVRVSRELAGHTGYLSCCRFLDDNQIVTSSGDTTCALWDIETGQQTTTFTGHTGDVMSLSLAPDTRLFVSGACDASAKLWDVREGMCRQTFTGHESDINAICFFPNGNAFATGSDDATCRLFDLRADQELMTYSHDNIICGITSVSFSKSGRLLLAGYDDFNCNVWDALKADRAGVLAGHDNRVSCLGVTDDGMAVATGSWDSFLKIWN

[2] = biological target: T1, Guanine nucleotide-binding protein G(I)/G(S)/G(T) subunit beta-1/gamma-2; test: Inhibition of SIGKAFKILGYPDYD binding to biotinylated Gbeta1gamma2 (unknown origin) incubated for 1 hr by phage ELISA; type: protein-complex assay
Mus musculus [3] = organism: Mus musculus; test: Inhibition of Gbetagamma-GRK2 interaction in mouse cardiomyocytes assessed as increase in contractility; type: cell-based
HL-60 [4] = test: Antiinflammatory activity in differentiated human HL60 cells assessed as inhibition of fMLP-stimulated cell migration at 10 uM after 1 hr by Boyden chamber method; type: functional, cell-based
HL-60 [5] = test: Binding affinity to Gbetagamma in differentiated human HL60 cells assessed as inhibition of fMLP-stimulated Rac1 activation at 10 uM preincubated for 10 mins followed by fMLP challenge for 90 secs by Western blot analysis; type: cell-based
Mus musculus [6] = organism: Mus musculus; test: Inhibition of Gbetagamma-GRK2 interaction in mouse cardiomyocytes assessed as increase in isoproterenol-induced contractility; type: cell-based
[7] = biological target: Delta-type opioid receptor (Homo sapiens) (UniProt P41143); details: CHO, 100 uM
Sequence of Delta-type opioid receptor (Homo sapiens) (P41143 whole entry): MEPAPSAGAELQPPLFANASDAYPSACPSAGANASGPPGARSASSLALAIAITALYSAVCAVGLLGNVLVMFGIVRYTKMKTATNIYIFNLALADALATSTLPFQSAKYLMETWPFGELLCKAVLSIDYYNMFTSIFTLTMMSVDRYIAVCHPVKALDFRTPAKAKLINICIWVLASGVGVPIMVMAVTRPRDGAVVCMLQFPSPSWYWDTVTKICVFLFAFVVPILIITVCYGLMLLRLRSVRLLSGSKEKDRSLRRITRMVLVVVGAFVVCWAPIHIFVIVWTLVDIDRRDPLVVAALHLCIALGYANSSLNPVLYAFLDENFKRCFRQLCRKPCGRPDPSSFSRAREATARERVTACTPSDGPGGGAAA
Description: Inhibition of human Gbetagamma-dependent delta opioid receptor-mediated PLC activation expressed in CHO cells assessed as reduction of Deltorphin 2-mediated total inositol phosphate production at 100 uM after 30 mins by scintillation counting analysis in presence of [3H]inositol

[8] = biological target: Delta-type opioid receptor (Homo sapiens) (UniProt P41143); details: CHO, 100 uM; remark: listed apart in the source
Description: Inhibition of human Gbetagamma-dependent delta opioid receptor-mediated PLC activation expressed in CHO cells assessed as reduction of DPDPE-mediated total inositol phosphate production at 100 uM after 30 mins by scintillation counting analysis in presence of [3H]inositol

Cc1c2ccc(=O)cc-2oc2cc(O)ccc12
inhibition [1]: inactive
inhibition [2]: inactive

O=C(O)C1CCCCC1c1c2ccc(=O)cc-2oc2cc(O)ccc12 (stereo not given)
inhibition (Mus musculus [3]): inactive
inhibition (HL-60 [4]): inactive
inhibition (HL-60 [5]): inactive
inhibition (Mus musculus [6]): inactive

Oc1ccc2c3c1O[C@H]1c4[nH]c5ccccc5c4C[C@@]4(O)[C@@H](C2)N(CC2CC2)CC[C@]314
inhibition [7]: inactive
inhibition [8]: inactive

O=c1cc2oc3cc(O)c(O)cc3c(-c3ccccc3O)c-2cc1O
inhibition [1]: inactive
inhibition [2]: inactive
